Measurements from patent publication US9326516B2, “Molecules having certain pesticidal utilities, and intermediates, compositions, and processes related thereto” (Dow AgroSciences LLC, priority 2014, dated 2016).

Assays:
Format in all cases: in vivo
[1] = test system: Cabbage Looper (Trichoplusia ni, TRIPNI); test: Bioassay on Cabbage Looper (CL), 128-well diet tray assay; conditions: 168 h, 50 μg/cm^2 on artificial diet, second instar CL larvae, 25° C., five to seven days, average of eight wells, read-out: CL % Control (or Mortality) rating
Experimental: (§1) Certain molecules disclosed in this document were tested against BAW and CEW using procedures described in the following examples. In the reporting of the results, the “BAW & CL Rating Table” was used (See Table Section).
Bioassays on CL were conducted using a 128-well diet tray assay, one to five second instar CL larvae were placed in each well (3 mL) of the diet tray that had been previously filled with 1 mL of artificial diet to which 50 μg/cm^2 of the test compound (dissolved in 50 μL of 90:10 acetone-water mixture) had been applied (to each of eight wells) and then allowed to dry. Trays were covered with a clear self-adhesive cover and held at 25° C., 14:10 light-dark for five to seven days. Percent mortality was recorded for the larvae in each well; activity in the eight wells was then averaged. The results are indicated in the table entitled “Table ABC: Biological Results” (See Table Section).

[2] = test system: Green Peach Aphid (Myzus persicae, MYZUPE); test: Bioassay on Green Peach Aphid (GPA), foliar spray on cabbage seedlings; conditions: 72 h, 200 ppm spray on infested cabbage seedlings, graded after three days, Abbott corrected % control, read-out: GPA % Control (or Mortality) rating
Experimental: Certain molecules disclosed in this document were tested against GPA using procedures described in the following example. In the reporting of the results, the “GPA Rating Table” was used (See Table Section).
Cabbage seedlings grown in 3-inch pots, with 2-3 small (3-5 cm) true leaves, were used as test substrate. The seedlings were infested with 20-50 GPA (wingless adult and nymph stages) one day prior to chemical application. Four pots with individual seedlings were used for each treatment. Test compounds (2 mg) were dissolved in 2 mL of acetone/methanol (1:1) solvent, forming stock solutions of 1000 ppm test compound. The stock solutions were diluted 5× with 0.025% Tween 20 in water to obtain the solution at 200 ppm test compound. A hand-held aspirator-type sprayer was used for spraying a solution to both sides of […] leaves until runoff. Reference plants (solvent check) were sprayed with the diluent only containing 20% by volume of acetone/methanol (1:1) solvent. Treated plants were held in a holding room for three days at approximately 25° C. and ambient relative humidity (RH) prior to grading. Evaluation was conducted by counting the number of live aphids per plant under a microscope. Percent Control was measured by using Abbott's correction formula (W. S. Abbott, “A Method of Computing the Effectiveness of an Insecticide” J. Econ. Entomol. 18 (1925), pp. 265-267) as follows. Corrected % Control=100*(X−Y)/X where X=No. of live aphids on solvent check plants and Y=No. of live aphids on treated plants

[3] = test system: Beet Armyworm (Spodoptera exigua, LAPHEG); test: Bioassay on Beet Armyworm (BAW), 128-well diet tray assay; conditions: 168 h, 50 μg/cm^2 on artificial diet, second instar BAW larvae, 25° C., five to seven days, average of eight wells, read-out: BAW % Control (or Mortality) rating
Experimental: as §1
Bioassays on BAW were conducted using a 128-well diet tray assay. one to five second instar BAW larvae were placed in each well (3 mL) of the diet tray that had been previously filled with 1 mL of artificial diet to which 50 μg/cm^2 of the test compound (dissolved in 50 μL of 90:10 acetone-water mixture) had been applied (to each of eight wells) and then allowed to dry. Trays were covered with a clear self-adhesive cover and held at 25° C., 14:10 light-dark for five to seven days. Percent mortality was recorded for the larvae in each well; activity in the eight wells was then averaged. The results are indicated in the table entitled “Table ABC: Biological Results” (See Table Section).

With `Fc1ccc(C2CSC(Nc3ccc(-c4ncn(-c5ccc(C(F)(F)F)cc5)n4)cc3)=N2)cc1` (stereo not drawn) [Compound F35, 4-(4-Fluorophenyl)-N-(4-(1-(4-(trifluoromethyl)phenyl)-1H-1,2,4-triazol-3-yl)phenyl)-4,5-dihydrothiazol-2-amine] the mortality at 50 µg/cm2 [1] was 50 to 100%, the mortality at 200 ppm [2] was 0% and the mortality at 50 µg/cm2 [3] was 0%.

`FC(F)(F)Oc1ccc(-n2cnc(-c3ccc(NC4=NC(c5cccc(Cl)c5)CO4)cc3)n2)cc1` (stereo not drawn) [Compound F10, 4-(3-Chlorophenyl)-N-(4-(1-(4-(trifluoromethoxy)phenyl)-1H-1,2,4-triazol-3-yl)phenyl)-4,5-dihydrooxazol-2-amine] was tested, and the mortality at 50 µg/cm2 [1] was 50 to 100%, the mortality at 200 ppm [2] was 0% and the mortality at 50 µg/cm2 [3] was 0%.

In the case of `FC(F)(F)c1ccc(-n2cnc(-c3ccc(NC4=NC(c5ccccc5)CS4)cc3)n2)cc1` (stereo not drawn) [Compound F34, 4-Phenyl-N-(4-(1-(4-(trifluoromethyl)phenyl)-1H-1,2,4-triazol-3-yl)phenyl)-4,5-dihydrothiazol-2-amine], the mortality at 50 µg/cm2 [1] is reported as 50 to 100%, the mortality at 200 ppm [2] is reported as 0% and the mortality at 50 µg/cm2 [3] is reported as 50 to 100%.

In the case of `FC(F)(F)Oc1ccc(C2CSC(Nc3ccc(-c4ncn(-c5ccc(OC(F)(F)F)cc5)n4)cc3)=N2)cc1` (stereo not drawn) [Compound F28, 4-(4-(Trifluoromethoxy)phenyl)-N-(4-(1-(4-(trifluoromethoxy)phenyl)-1H-1,2,4-triazol-3-yl)phenyl)-4,5-dihydrothiazol-2-amine], the mortality at 50 µg/cm2 [1] is reported as 0%, the mortality at 200 ppm [2] is reported as 0% and the mortality at 50 µg/cm2 [3] is reported as 0 to 50%.

In the case of `FC(F)(F)c1ccc(-n2cnc(-c3ccc(NC4=NC(c5ccccc5Cl)CS4)cc3)n2)cc1` (stereo not drawn) [Compound F41, 4-(2-Chlorophenyl)-N-(4-(1-(4-(trifluoromethyl)phenyl)-1H-1,2,4-triazol-3-yl)phenyl)-4,5-dihydrothiazol-2-amine], the mortality at 50 µg/cm2 [1] is reported as 50 to 100%, the mortality at 200 ppm [2] is reported as 0% and the mortality at 50 µg/cm2 [3] is reported as 50 to 100%.

`FC(F)(F)Oc1ccc(-n2cnc(-c3ccc(NC4=NC(c5ccc(Cl)cc5)CO4)cc3)n2)cc1` (stereo not drawn) [Compound F3, 4-(4-Chlorophenyl)-N-(4-(1-(4-(trifluoromethoxy)phenyl)-1H-1,2,4-triazol-3-yl)phenyl)-4,5-dihydrooxazol-2-amine] showed a mortality at 50 µg/cm2 [1] of 50 to 100%, a mortality at 200 ppm [2] of 0 to 80% and a mortality at 50 µg/cm2 [3] of 50 to 100%.

`FC(F)(F)c1ccc(-n2cnc(-c3ccc(NC4=NC(c5ccccc5Cl)CO4)cc3)n2)cc1` (stereo not drawn) [Compound F19, 4-(2-Chlorophenyl)-N-(4-(1-(4-(trifluoromethyl)phenyl)-1H-1,2,4-triazol-3-yl)phenyl)-4,5-dihydrooxazol-2-amine] showed a mortality at 50 µg/cm2 [1] of 50 to 100%, a mortality at 200 ppm [2] of 0% and a mortality at 50 µg/cm2 [3] of 0%.

`FC(F)(F)c1ccc(C2CSC(Nc3ccc(-c4ncn(-c5ccc(C(F)(F)F)cc5)n4)cc3)=N2)cc1` (stereo not drawn) [Compound F38, 4-(4-(Trifluoromethyl)phenyl)-N-(4-(1-(4-(trifluoromethyl)phenyl)-1H-1,2,4-triazol-3-yl)phenyl)-4,5-dihydrothiazol-2-amine] was tested, and the mortality at 50 µg/cm2 [1] was 50 to 100%, the mortality at 200 ppm [2] was 0% and the mortality at 50 µg/cm2 [3] was 0 to 50%.

For `Cc1ccc(C2COC(Nc3ccc(-c4ncn(-c5ccc(OC(F)(F)F)cc5)n4)cc3)=N2)cc1` (stereo not drawn) [Compound F4, 4-(p-Tolyl)-N-(4-(1-(4-(trifluoromethoxy)phenyl)-1H-1,2,4-triazol-3-yl)phenyl)-4,5-dihydrooxazol-2-amine], the mortality at 50 µg/cm2 [1] was 50 to 100%, the mortality at 200 ppm [2] was 0% and the mortality at 50 µg/cm2 [3] was 0%.

Compound `Cc1cc(C2CSC(Nc3ccc(-c4ncn(-c5ccc(OC(F)(F)F)cc5)n4)cc3)=N2)ccc1Cl` (stereo not drawn) [Compound F31, 4-(4-Chloro-3-methylphenyl)-N-(4-(1-(4-(trifluoromethoxy)phenyl)-1H-1,2,4-triazol-3-yl)phenyl)-4,5-dihydrothiazol-2-amine] has a mortality at 50 µg/cm2 [1] of 50 to 100%, a mortality at 200 ppm [2] of 0% and a mortality at 50 µg/cm2 [3] of 50 to 100%.

With `FC(F)(F)Oc1ccc(-n2cnc(-c3ccc(NC4=NC(c5ccc(Br)cc5)CS4)cc3)n2)cc1` (stereo not drawn) [Compound F26, 4-(4-Bromophenyl)-N-(4-(1-(4-(trifluoromethoxy)phenyl)-1H-1,2,4-triazol-3-yl)phenyl)-4,5-dihydrothiazol-2-amine] the mortality at 50 µg/cm2 [1] was 0 to 50%, the mortality at 200 ppm [2] was 0% and the mortality at 50 µg/cm2 [3] was 0%.

For `FC(F)(F)c1ccc(-n2cnc(-c3ccc(NC4=NC(c5cccc(Cl)c5)CO4)cc3)n2)cc1` (stereo not drawn) [Compound F18, 4-(3-Chlorophenyl)-N-(4-(1-(4-(trifluoromethyl)phenyl)-1H-1,2,4-triazol-3-yl)phenyl)-4,5-dihydrooxazol-2-amine], the mortality at 50 µg/cm2 [1] was 50 to 100%, the mortality at 200 ppm [2] was 0% and the mortality at 50 µg/cm2 [3] was 50 to 100%.

`FC(F)(F)Oc1ccc(-n2cnc(-c3ccc(NC4=NC(c5ccc(C(F)(F)F)cc5)CS4)cc3)n2)cc1` (stereo not drawn) [Compound F27, N-(4-(1-(4-(Trifluoromethoxy)phenyl)-1H-1,2,4-triazol-3-yl)phenyl)-4-(4-(trifluoromethyl)phenyl)-4,5-dihydrothiazol-2-amine] gave a mortality at 50 µg/cm2 [1] of 50 to 100%, a mortality at 200 ppm [2] of 0% and a mortality at 50 µg/cm2 [3] of 0%.

`Cc1cc(C2CSC(Nc3ccc(-c4ncn(-c5ccc(C(F)(F)F)cc5)n4)cc3)=N2)ccc1Cl` (stereo not drawn) [Compound F42, 4-(4-Chloro-3-methylphenyl)-N-(4-(1-(4-(trifluoromethyl)phenyl)-1H-1,2,4-triazol-3-yl)phenyl)-4,5-dihydrothiazol-2-amine] showed a mortality at 50 µg/cm2 [1] of 0%, a mortality at 200 ppm [2] of 0% and a mortality at 50 µg/cm2 [3] of 0%.

`FC(F)(F)Oc1ccc(-n2cnc(-c3ccc(NC4=NC(c5ccc(Br)cc5)CO4)cc3)n2)cc1` (stereo not drawn) [Compound F9, 4-(4-Bromophenyl)-N-(4-(1-(4-(trifluoromethoxy)phenyl)-1H-1,2,4-triazol-3-yl)phenyl)-4,5-dihydrooxazol-2-amine] gave a mortality at 50 µg/cm2 [1] of 50 to 100%, a mortality at 200 ppm [2] of 80 to 100% and a mortality at 50 µg/cm2 [3] of 50 to 100%.

For `FC(F)(F)c1ccc(-n2cnc(-c3ccc(NC4=NC(c5ccc(Cl)cc5)CO4)cc3)n2)cc1` (stereo not drawn) [Compound F16, 4-(4-Chlorophenyl)-N-(4-(1-(4-(trifluoromethyl)phenyl)-1H-1,2,4-triazol-3-yl)phenyl)-4,5-dihydrooxazol-2-amine], the mortality at 50 µg/cm2 [1] was 50 to 100%, the mortality at 200 ppm [2] was 80 to 100% and the mortality at 50 µg/cm2 [3] was 50 to 100%.

Work on `FC(F)(F)c1ccc(-n2cnc(-c3ccc(NC4=NC(c5cccc(Cl)c5)CS4)cc3)n2)cc1` (stereo not drawn) [Compound F40, 4-(3-Chlorophenyl)-N-(4-(1-(4-(trifluoromethyl)phenyl)-1H-1,2,4-triazol-3-yl)phenyl)-4,5-dihydrothiazol-2-amine] yielded a mortality at 50 µg/cm2 [1] of 50 to 100%, a mortality at 200 ppm [2] of 0 to 80% and a mortality at 50 µg/cm2 [3] of 50 to 100%.
